Consider one compound from US11254700B2, “GSK-3β inhibitors and use thereof in methods of treatment” (UNIVERSITY OF HAWAII, priority 2017, dated 2022).

Series [1] can be described thus: in vitro. The conditions noted are these: PAMPA, 5 h, 20 μM, pH 7.4. How it is done:
Samples were run in quadruplicate.
Oral administration is noninvasive and is preferred for chronical diseases such as Alzheimer's disease and other CNS disorders. […] In the PAMPA model, the amount of target compounds diffused from a donor compartment to an acceptor compartment through a tri-layer phospholipid pre-coated membrane are measured to assess oral-absorption potential of drug candidates. In the present study, 1, 4, 9, 17, 21 and 30 were evaluated with the PAMPA assay.
(In general: In PAMPA a lipid-coated filter parts donor from acceptor wells.)

Series [2] deals with APP/PS1 transgenic mice. As to the kind of experiment: Morris water maze test. It is filed as in vivo, mouse. How it is done:
The backgrounds of all mice (APP/PS1 dual transgenic mice and wild-type mice with littermates) were C57/B6. Transgenic mice were randomly divided into three groups (n=20 for each group), and wild-type mice were used as controls (n=20). […] Throughout the study-period, animals were housed in a controlled environment (temperature, 22° C.; humidity, 50-60%, 12-hour light/12-hour dark schedules), with free access to rodent chow and water. After a Morris water maze test, mice were perfused with cold phosphate-buffered saline (PBS), brain tissues were dissected and kept frozen at −80° C. until further analysis. […] Isoorientin was dissolved in sterilized, ultrapure water, sonicated for 20 minutes at a concentration of 5 mg/ml and 2.5 mg/ml, and stored at 4° C. Isoorientin was administered by oral gavage. The required amount of solution was returned to room temperature before intragastric administration. […] The maze was composed of a circular pool (120 cm in diameter) filled with water (22±2° C.) to a height of 30 cm. […] Mice were given day of adaptive training followed by trials on six consecutive days. Each trial started by gently placing the mouse into the water with its head toward the pool wall of any of the three quadrants without the platform. If an animal found the platform within 60 seconds, it was left on the platform for 20 seconds. […] On the last day of Morris water maze test, the platform was removed and the number of times that the mice crossed the location of the original platform was quantified. Between trials, all mice were placed back in their home cages using a spoon-net to avoid direct contact with the experimenter. All trials were tracked automatically by a digital tracking system (Feidi Biological Technology) assessing path length, swimming speed, and latency to escape from the water.

The subject of series [3] is TNFα, IL-2, IFN-γ, IL-4, IL-10. As to the kind of experiment: Serum cytokines. Format: in vivo, mouse. The conditions noted are these: APP/PS1 mice, vs model group. How it is done:
The backgrounds of all mice (APP/PS1 dual transgenic mice and wild-type mice with littermates) were C57/B6. Transgenic mice were randomly divided into three groups (n=20 for each group), and wild-type mice were used as controls (n=20). The control group and one group of transgenic mice (model group) were given sterilized ultrapure water, and the other two groups of transgenic mice received low- and high-dose Isoorientin (20 and 50 mg/kg, respectively) via intragastric administration for 60 days. Throughout the study-period, animals were housed in a controlled environment (temperature, 22° C.; humidity, 50-60%, 12-hour light/12-hour dark schedules), with free access to rodent chow and water. After a Morris water maze test, mice were perfused with cold phosphate-buffered saline (PBS), brain tissues were dissected and kept frozen at −80° C. until further analysis. […] T-cell-specific cytokines (Interferon-γ (IFN-γ), interleukin (IL)-2, IL-4, and IL-10) in mouse serum were also measured. Mouse Th17 Magnetic Bead Panel 96-Well Plate Assay was purchased from Millipore. The assay was performed in a 96-well plate and all reagents were prepared according to the Millipore instructions. Briefly, 200 μL of Wash Buffer was added into each well to pre-wet plate, Wash Buffer was decanted thoroughly and the plate was mixed on a plate shaker for 10 minutes at room temperature (25-27° C.). In accordance with the instructions of the kit, the appropriate reagents were added to the wells and the plate was sealed and incubated overnight at 4° C. in the dark. Plates were put on the magnetic support and each well was washed twice with 200 μl of wash buffer via a plate shaker at 450 rpm for 2 minutes at room temperature. After adding 5 μl of detection antibody to each well, the plate was sealed and incubated with agitation on a plate shaker for 1 hour at room temperature. […] Binding was assessed using a LUMINEX-200 instrument and xPONENT software. Serum samples were analyzed for IL4 and TNFα using a Mouse IL4 ELISA Kit and a Mouse TNFα ELISA Kit, respectively, according to the manufacturer's instructions. […]

For series [4], the system named is Aβ plaques and Iba1-positive microglia. Description: Immunofluorescence labeling (Aβ+IBA1). It is filed as in vivo, mouse. The conditions noted are these: APP/PS1 mice. How it is done: The backgrounds of all mice (APP/PS1 dual transgenic mice and wild-type mice with littermates) were C57/B6. Transgenic mice were randomly divided into three groups (n=20 for each group), and wild-type mice were used as controls (n=20). The control group and one group of transgenic mice (model group) were given sterilized ultrapure water, and the other two groups of transgenic mice received low- and high-dose Isoorientin (20 and 50 mg/kg, respectively) via intragastric administration for 60 days. Throughout the study-period, animals were housed in a controlled environment (temperature, 22° C.; humidity, 50-60%, 12-hour light/12-hour dark schedules), with free access to rodent chow and water. After a Morris water maze test, mice were perfused with cold phosphate-buffered saline (PBS), brain tissues were dissected and kept frozen at −80° C. until further analysis. […] Double-labelling procedures were performed to determine the relationship between Iba1-positive and Aβ-positive plaques. […] Sections were then blocked with 5% BSA in 0.01% TRITON X-100 in TBS (TBST) for 1 hour at room temperature. […] Representative images were obtained by fluorescence microscope (Leica).

As to `O=c1cc(-c2ccc(O)c(O)c2)oc2cc(O)c([C@@H]3O[C@H](CO)[C@@H](O)[C@H](O)[C@H]3O)c(O)c12` [Compound 1, isoorientin], in series [1], the Pe was 0.51 ± 0.01 ×10^−6 cm/s and the “R (percent recovery)” value is 48%. Besides, the platform cross frequencies entry in series [2] (all doses, vs untreated APP/PS1) is given as “significantly increased”. In addition, in series [2] (intragastric, 60 days, all doses, vs untreated APP/PS1), the escape latency entry is on record as “significantly reduced the escape latency”. The cognitive deficit result in series [2] (oral, 25-mg/kg) was “significant alleviation of cognitive deficit”. In series [3], the IFNγ in serum entry is given as “no statistical difference in the decrease”; the “anti-inflammatory factors (IL-4, IL-10) in serum” value is on record as “significantly elevated”; the “pro-inflammatory factors (TNFα, IFNγ, IL-2) in serum” value is given as “slightly lower than those in the model group”. Further, in series [4], the “Aβ plaques in cortex and hippocampus” value was “reduced”; the “activated aggregated Iba1-positive cells around plaques” value is on record as “also reduced”.
